Reference: PubChem BioAssay AID1648 (Sanford-Burnham Center for Chemical Genomics, 2009)
Activity calls are given as the source filed them. How the calls were made is not given here.

These molecules were tested against Serine/threonine-protein kinase mTOR (Homo sapiens) (UniProt P42345) (assay: mTOR FRB domain ligand binding – biophysical, NMR (AID 1648)). Conditions: NMR binding to FRB domain, chemical shift.
Chain of Serine/threonine-protein kinase mTOR (Homo sapiens) (P42345 2015-2114): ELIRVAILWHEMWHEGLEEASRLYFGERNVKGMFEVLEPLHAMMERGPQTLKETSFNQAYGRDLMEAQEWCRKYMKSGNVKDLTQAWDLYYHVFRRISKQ
For `CSc1n[nH]c(NCc2cccs2)n1`, the Kd was > 4 mM (inactive).
`Cc1cc(C(=O)Nc2cccnc2)no1` was tested, and the Kd was > 4 mM (inactive).
In the case of `O=C(Nc1nnc(-c2ccco2)o1)c1ccc([N+](=O)[O-])o1`, the Kd is reported as > 4 mM (inactive).
For `COCCn1cnc2cc(C)c(C)cc21`, the Kd was > 4 mM (inactive).
With `Cc1cccc(NC(=O)CN2C(=O)CNC2=O)c1` the Kd was > 4 mM (inactive).
`CC(=O)Nc1ccc(Oc2nc(C)cc(C)n2)cc1` was tested, and the Kd was > 4 mM (inactive).
`CC1=[N+]([O-])C2(N)CCc3c(no[n+]3[O-])C2(O)C1` (stereo unspecified) was tested, and the Kd was > 4 mM (inactive).
`COc1ccc(-c2nc3nc(C)cc(C)n3n2)cc1` was tested, and the Kd was > 4 mM (inactive).
With `O=C1CSC(=Nc2ccccc2)N1` the Kd was > 4 mM (inactive).
For `CCP(=O)(CC)c1cccc(C)c1`, the Kd was > 4 mM (inactive).
`N=C1/C(=C\c2ccccc2)C(=O)N=C2SC=NN12` was tested, and the Kd was > 4 mM (inactive).
For `O=C(O)C1CSC(c2cccnc2)N1` (stereo unspecified), the Kd was > 4 mM (inactive).
`CCN(CC)c1nc2n(c(=O)n1)CCO2` was tested, and the Kd was > 4 mM (inactive).
In the case of `NCc1cccc2c1OCCO2`, the Kd is reported as > 4 mM (inactive).
In the case of `COc1ccc(C)cc1S(=O)(=O)Nc1ccccc1C`, the Kd is reported as > 4 mM (inactive).
For `O=C(O)C1COc2ccccc2C1` (stereo unspecified), the Kd was > 4 mM (inactive).
With `CCn1c2ccccc2c2nn(C)c(=N)nc21` the Kd was > 4 mM (inactive).
With `CCN1CCc2c(sc(N)c2C(N)=O)C1` the Kd was > 4 mM (inactive).
With `NCc1ccc(-n2cccc2)cc1` the Kd was > 4 mM (inactive).
For `NC(=O)C1CCN(C2CC(=O)NC2=O)CC1` (stereo unspecified), the Kd was > 4 mM (inactive).
For `CC(=O)Nn1cc2c(=O)n(C)c(=O)n(C)c2c1`, the Kd was > 4 mM (inactive).
In the case of `COc1ccccc1NC(=O)C1CCCCC1`, the Kd is reported as > 4 mM (inactive).
With `O=C(O)c1cc2ccccc2[nH]1` the Kd was > 4 mM (inactive).
`O=C(c1ccncc1)c1ccc(Br)cc1` was tested, and the Kd was > 4 mM (inactive).
In the case of `CC(C)=NNC(=O)C(=O)NC(C)(C)C`, the Kd is reported as > 4 mM (inactive).
In the case of `NC1=NN(c2ccccc2)C(=O)C1`, the Kd is reported as > 4 mM (inactive).
For `COC(=O)C(O)c1ccccc1` (stereo unspecified), the Kd was > 4 mM (inactive).
With `O=C(Nc1ccc2c(c1)OCO2)c1cnn2cccnc12` the Kd was > 4 mM (inactive).
`C/C=C(\C)c1nnc(NC(=O)c2ccco2)s1` was tested, and the Kd was > 4 mM (inactive).
`c1n[nH]cc1-c1cn[nH]c1` was tested, and the Kd was > 4 mM (inactive).
With `COc1ccccc1N1C(=N)SCC1=O` the Kd was > 4 mM (inactive).
With `O=S(=O)(N1CCCCC1)n1nnc2ccccc21` the Kd was > 4 mM (inactive).
For `c1ccc(-c2noc(-c3cccnc3)n2)nc1`, the Kd was > 4 mM (inactive).
`O=C1CSC(=Nc2cccc(C(F)(F)F)c2)N1` was tested, and the Kd was > 4 mM (inactive).
`Nc1c(Nc2ccccc2)c2ccccc2oc1=O` was tested, and the Kd was > 4 mM (inactive).
In the case of `O=C(NCCO)NC(=S)c1ccccc1`, the Kd is reported as > 4 mM (inactive).
In the case of `Cc1cc(NC(=O)c2cc(C)on2)no1`, the Kd is reported as > 4 mM (inactive).
In the case of `CC[C@H](CCC(C)[C@H]1CCC2C3CCC4C[C@@H](O)CC[C@]4(C)C3CC[C@@]21C)C(C)C` (stereo partly specified), the Kd is reported as > 4 mM (inactive).
With `NC(=O)CSc1nc2ccccc2o1` the Kd was > 4 mM (inactive).
`CC1=C(C(N)=O)C(c2cccs2)C(C(N)=O)=C(C)N1` was tested, and the Kd was > 4 mM (inactive).
In the case of `COc1cc(S(=O)(=O)Nc2cccnc2)ccc1F`, the Kd is reported as > 4 mM (inactive).
For `C[C@]12CC(=O)C3C(CC[C@@H]4C[C@H](O)CC[C@]34C)C1CC[C@]2(O)C(=O)CO` (stereo partly specified), the Kd was > 4 mM (inactive).
With `Cc1ccn(S(=O)(=O)c2ccc(C(C)(C)C)cc2)n1` the Kd was > 4 mM (inactive).
With `COC(=O)c1cccc2cc[nH]c12` the Kd was > 4 mM (inactive).
In the case of `Nc1nc2ncc(=O)[nH]c2c(=O)[nH]1`, the Kd is reported as > 4 mM (inactive).
For `O=C(O)c1cccc(CSc2ncccn2)c1`, the Kd was > 4 mM (inactive).
`COC(=O)c1cc2ccccc2cn1` was tested, and the Kd was > 4 mM (inactive).
For `CC(=O)Nc1ccc2c(C)cc(=O)[nH]c2c1`, the Kd was > 4 mM (inactive).
For `CC(=O)O[C@@H]1CC2C(C)(C)[C@H](O)C=C[C@]2(C)C2CC[C@]3(C)C(=CC(=O)O[C@H]3c3ccoc3)[C@@]21C` (stereo partly specified), the Kd was > 4 mM (inactive).
`O=C(O)c1cnn2ccccc12` was tested, and the Kd was > 4 mM (inactive).
`CC(=O)O[C@H]1CC[C@@]2(C)C(CC[C@]3(C)C2CC=C2C4CC(C)(C)CC[C@]4(C)CC[C@]23C)C1(C)C` (stereo partly specified) was tested, and the Kd was > 4 mM (inactive).
With `c1ccc(-c2nsc(N3CCCNCC3)n2)cc1` the Kd was > 4 mM (inactive).
With `O=C1CCC(c2cccs2)=NN1` the Kd was > 4 mM (inactive).
`COC(=O)c1cccc(C(F)(F)F)c1` was tested, and the Kd was > 4 mM (inactive).
In the case of `O=C1c2cccnc2C(=O)N1Cc1ccc2c(c1)OCO2`, the Kd is reported as > 4 mM (inactive).
`Nc1ncnc2c1ncn2CCOc1ccccc1` was tested, and the Kd was > 4 mM (inactive).
In the case of `CC(C)C(=O)NC(=S)N1CCOCC1`, the Kd is reported as > 4 mM (inactive).
`COc1ccc2ccc(=O)oc2c1` was tested, and the Kd was > 4 mM (inactive).
`S=c1nc2c(n[nH]1)[nH]c1ccccc12` was tested, and the Kd was > 4 mM (inactive).
In the case of `Cc1cc(C)nc(Nc2n[nH]c(Cc3ccccc3)n2)n1`, the Kd is reported as > 4 mM (inactive).
In the case of `S=C(NCc1ccco1)NN1CCOCC1`, the Kd is reported as > 4 mM (inactive).
For `CC[C@@]1(O)C(=O)OCc2c1cc1n(c2=O)Cc2cc3ccccc3nc2-1`, the Kd was > 4 mM (inactive).
With `COC(=O)C1CCc2ccccc2N1` (stereo unspecified) the Kd was > 4 mM (inactive).
In the case of `COc1ccc(NC(=O)/C=N/O)cc1`, the Kd is reported as > 4 mM (inactive).
For `CN1CCC(NC(=O)c2cnccn2)CC1`, the Kd was > 4 mM (inactive).
For `COC(=O)CCC(C)[C@H]1CCC2C3C(C[C@H](O)[C@@]21C)[C@@]1(C)CC[C@@H](O)C[C@H]1C[C@H]3O` (stereo partly specified), the Kd was > 4 mM (inactive).
For `O=C(c1ccccc1)c1cncc(Br)c1`, the Kd was > 4 mM (inactive).
With `OCc1cccc2nonc12` the Kd was > 4 mM (inactive).
With `Cc1cc(NC(=O)CCCn2cnc([N+](=O)[O-])n2)no1` the Kd was > 4 mM (inactive).
For `NCc1ccc(-n2cccn2)cc1`, the Kd was > 4 mM (inactive).
With `Nc1ccc(Oc2ccccc2)nc1` the Kd was > 4 mM (inactive).
For `O=C(c1ccc(Cl)c(F)c1F)N1CCCC1`, the Kd was > 4 mM (inactive).
In the case of `COCC(=O)Nc1ccc(C)c(Cl)c1`, the Kd is reported as > 4 mM (inactive).
`NC(=O)CCN1C(=O)c2ccccc2C1=O` was tested, and the Kd was > 4 mM (inactive).
For `O=C1c2ccccc2C(=O)N1CCc1ccccn1`, the Kd was > 4 mM (inactive).
`CC1(C)C(=O)[C@@H]2O[C@@H]2[C@@]2(C)C1C[C@@H](O)[C@]1(C)C2CC[C@@]2(C)[C@H](c3ccoc3)OC(=O)C3OC321` (stereo partly specified) was tested, and the Kd was > 4 mM (inactive).
`CC1(C)C2CC(=O)[C@]3(C)C(CC[C@@]4(C)[C@H](c5ccoc5)OC(=O)[C@H]5O[C@]543)[C@@]2(C)C(=O)C[C@H]1O` (stereo partly specified) was tested, and the Kd was > 4 mM (inactive).
For `Cc1nc2ccc(F)cc2cc1C(=O)NCc1ccco1`, the Kd was > 4 mM (inactive).
`O=C(Nc1ccc2c(c1)OCO2)c1cccc(F)c1` was tested, and the Kd was > 4 mM (inactive).
`Cc1nnc(SCc2cccs2)[nH]c1=O` was tested, and the Kd was > 4 mM (inactive).
`CCOC(=O)c1csc(C)n1` was tested, and the Kd was > 4 mM (inactive).
In the case of `O=C(O)CSc1nnc(-c2cccs2)o1`, the Kd is reported as > 4 mM (inactive).
For `COc1nc(C)ccc1-c1noc(-c2ccncc2)n1`, the Kd was > 4 mM (inactive).
`Cc1ccc(S(C)(=O)=O)s1` was tested, and the Kd was > 4 mM (inactive).
`Cc1ccc2c(c1)CCCN2C(=O)c1c(C)noc1C` was tested, and the Kd was > 4 mM (inactive).
With `CCc1ccccc1NC(=O)c1ccoc1C` the Kd was > 4 mM (inactive).
In the case of `Cc1c(/C=N/O)cnn1C`, the Kd is reported as > 4 mM (inactive).
For `CC(=O)NCCc1cc2ccc(C)c(C)c2[nH]c1=O`, the Kd was > 4 mM (inactive).
With `Nc1cc(C(=O)N2CCCC2)cc(C(=O)N2CCCC2)c1` the Kd was > 4 mM (inactive).
`C=CCSCC=C` was tested, and the Kd was > 4 mM (inactive).
For `Cc1n[nH]c(=O)nc1N1CCN(c2ccccc2)CC1`, the Kd was > 4 mM (inactive).
`COCC(=O)N1CCCc2ccccc21` was tested, and the Kd was > 4 mM (inactive).
With `O=C1c2cccc3cc(S(=O)(=O)O)cc(c23)C(=O)N1O` the Kd was > 4 mM (inactive).
In the case of `Cc1ccc(C(=O)Nc2c[nH]c(=O)[nH]c2=O)cc1`, the Kd is reported as > 4 mM (inactive).
`Cc1ccc(C)c(C(=O)NCc2ccncc2)c1` was tested, and the Kd was > 4 mM (inactive).
With `CNC(=S)Nc1ccc(OC)cc1C` the Kd was > 4 mM (inactive).
`CC(=O)N(C)Cc1nc2ccccc2n1C` was tested, and the Kd was > 4 mM (inactive).
`O=C(O)c1ccc2occc2c1` was tested, and the Kd was > 4 mM (inactive).
`COc1cccc(-c2nn(-c3ccccc3)cc2CO)c1` was tested, and the Kd was > 4 mM (inactive).
In the case of `O=C(O)CCC(=O)Nc1ccccn1`, the Kd is reported as > 4 mM (inactive).
`CC(=O)Nc1ccc(Nc2nnc(C)c(=O)[nH]2)cc1` was tested, and the Kd was > 4 mM (inactive).
`NC12CC3CC(C1)CC(CC(=O)O)(C3)C2` was tested, and the Kd was > 4 mM (inactive).
For `COc1ccc(-c2ccc(OC)cc2C(=O)O)cc1`, the Kd was > 4 mM (inactive).
`CC(=O)c1c(C)n([O-])c2ccccc2[n+]1=O` was tested, and the Kd was > 4 mM (inactive).
With `Cn1cccc1C(=O)NS(=O)(=O)c1ccccc1Cl` the Kd was > 4 mM (inactive).
In the case of `O=C(O)Cc1c[nH]c2ccccc12`, the Kd is reported as > 4 mM (inactive).
For `Cn1c(SCc2ccon2)nc2ccccc2c1=O`, the Kd was > 4 mM (inactive).
`Cc1nc(N)sc1C(=O)N/N=C/c1ccncc1` was tested, and the Kd was > 4 mM (inactive).
For `COCCOc1nc2ccccc2nc1C`, the Kd was > 4 mM (inactive).
For `C=CCc1ccc(O)c(OC)c1`, the Kd was > 4 mM (inactive).
`O=c1c2c(nc3nc(COc4ccccc4)[nH]n13)CCC2` was tested, and the Kd was > 4 mM (inactive).
For `CC(=O)NCC1(c2ccccc2)CCOCC1`, the Kd was > 4 mM (inactive).
In the case of `Cn1cc(Cl)c(C(=O)Nc2ccc(F)cc2F)n1`, the Kd is reported as > 4 mM (inactive).
With `NC(=O)C1(S(=O)(=O)c2ccccc2)CC1` the Kd was > 4 mM (inactive).
`Cc1ccccc1NC(=O)CC1NCCNC1=O` (stereo unspecified) was tested, and the Kd was > 4 mM (inactive).
In the case of `Cc1c(C(=O)N2CCOCC2)oc2c1C(=O)CC(C)(C)C2`, the Kd is reported as > 4 mM (inactive).
With `O=C(O)CSc1nc2ccccc2c(=O)[nH]1` the Kd was > 4 mM (inactive).
For `Nc1c(S(=O)(=O)c2ccccc2)csc1C(=O)O`, the Kd was > 4 mM (inactive).
`COc1cc([C@H]2Oc3cc([C@H]4Oc5cc(O)cc(O)c5C(=O)[C@@H]4O)ccc3O[C@@H]2CO)ccc1O` was tested, and the Kd was > 4 mM (inactive).
In the case of `CC(=O)Nc1cnn(-c2ccccc2)c(=O)c1Cl`, the Kd is reported as > 4 mM (inactive).
`CN(c1ccccc1C(=O)N1CCOCC1)S(C)(=O)=O` was tested, and the Kd was > 4 mM (inactive).
